Assay results published in US8795632B2, “Disease animal model for chronic pain” (Astellas Pharma Inc., priority 2008, dated 2014).

Assays:
Sprague-Dawley rats [1] = assay: Skin pain sensation threshold value (von Frey filaments) after repeated administration of reserpine; type: in vivo, rat; conditions: for time after reserpine final administration until which skin pain sensation threshold value was statistically significantly low vs solvent group: reserpine 1 mg/kg s.c. once a day for 3 days
Procedure: Measurement of muscle pressure pain threshold value was carried out in accordance with the method of Schafers et al. (Schafers M. et al., Pain, 104, 579-588, 2003). A pressure stimulus of gradually increasing to 250 g at the maximum was added to the rat right hind leg gastrocnemius muscle. […] The measurement was carried out 3 times at each point of time of the measurement, and the average was used as the measurement value. Measurement of the skin pain sensation threshold value was carried out in accordance with the method of Chaplan et al. (Chaplan et al., J. Neurosci. Methods, 53, 55-63, 1994). This was measured using a series of von Frey filaments having different diameters which may add a constant pressure. […] The von Frey filament was applied using the up and down method. That is, by firstly applying a filament of middle diameter, a filament having one rank smaller diameter was applied when the withdrawal reaction was observed or a filament having one rank larger diameter was applied when the withdrawal reaction was not observed. The skin pain sensation threshold value at each point of time of the measurement was calculated as a hind paw withdrawal reaction threshold value (g) using the calculation formula reported by Chaplan et al. (Chaplan et al., described above). Influences of reserpine upon the muscle pressure pain threshold value and skin pain sensation threshold value were examined by the following protocol. A total of 24 animals for each of male and female rats were used. After measuring muscle pressure pain threshold value and skin pain sensation threshold value before the reserpine treatment (base line), they were divided based on the reserpine administration doses into a solvent (0.5% acetic acid aqueous solution) group, a reserpine 0.1 mg/kg group, a 0.3 mg/kg group and a 1 mg/kg group (the number of animals per one group was 6). The solvent or reserpine was subcutaneously administered on the back of the rats of each group once a day for 3 days. All of the administration volume of the solvent or reserpine was set to 1 ml per 1 kg body weight of each animal. After final administration of the solvent or reserpine, the muscle pressure pain threshold value and skin pain sensation threshold value of each rat were measured 1, 3, 5, 7, 10, 14 and 21 days thereafter.
All of the measured values were expressed as average value±standard error. Statistical significance test of the measured values between the reserpine administration groups and the solvent administration group at each point of time was carried out by a two-way analysis of variance and the Bonferroni method. Probability value (P) of less than 5% was judged as statistically significant (P<0.05 was expressed as * in the graphs).

Sprague-Dawley rats [2] = assay: Cold sensitivity (acetone method) after reserpine single administration; type: in vivo, rat; conditions: reserpine 3 mg/kg single s.c.
Procedure: Measurement of cold sensitivity was carried out in accordance with the method of Choi et al. (Choi et al., Pain, 59, 369-376, 1994). After adaptation of each rat to a wire mesh bottom cage for measurement, 50 μl of acetone was sprayed to the plantar surface of the right hind paw of the rat using a syringe for insulin injection. The number of reactions of the right hind paw (flinching, lifting and leg licking) occurred during 1 minute just after the spraying was measured and used as the index of cold sensitivity. At each point of time of the measurement, the acetone spraying was carried out 3 times at 5 minute intervals and the average was used as the measured vale. […]
Influences of the reserpine single administration upon the muscle pressure pain threshold value, skin pain sensation threshold value, cold sensitivity and heat sensitivity were examined in accordance with the following protocol. […] The muscle pressure pain threshold value, skin pain sensation threshold value, cold sensitivity and heat sensitivity before the reserpine treatment (base lines) were measured and then they were divided into a solvent (0.5% acetic acid aqueous solution) group and a reserpine (3 mg/kg) group (the number of animals per group was 6). […]
All of the measured values were expressed as average value±standard error. […]

In the case of `COC(=O)[C@H]1[C@H]2C[C@@H]3c4[nH]c5cc(OC)ccc5c4CCN3C[C@H]2C[C@@H](OC(=O)c2cc(OC)c(OC)c(OC)c2)[C@@H]1OC` [reserpine], the “time after reserpine final administration until which skin pain sensation threshold value was statistically significantly low vs solvent group” value (Sprague-Dawley rats [1]; female rats) is reported as 14 days, the “skin pain sensation threshold value” (Sprague-Dawley rats [1]; male and female rats, reserpine 0.1, 0.3, 1 mg/kg s.c. once a day for 3 days, two-way analysis of variance vs solvent) is reported as “significantly reduced” and the “time after reserpine final administration until which skin pain sensation threshold value was statistically significantly low vs solvent group” value (Sprague-Dawley rats [1]; male rats) is reported as 21 days. The “skin pain sensation threshold value” (Sprague-Dawley rats [1]; reserpine 1 mg/kg group, s.c. once a day for 3 days) was “markedly reduced”, the “cold sensitivity: number of reactions” value (Sprague-Dawley rats [2]; after 2, 3, 5, 7 and 10 days) was “significantly increased” and the “cold sensitivity: number of reactions” value (Sprague-Dawley rats [2]; within 24 hours after administration) was “did not show significant increase”.
